The values below come from US7144867B2, “Anticancer glycoside compounds” (priority 2004, dated 2006).

Marks after values point to notes of the source that are not given here.

One data set concerns AsPC-1 cells. As to the kind of experiment: 3H-methyl thymidine incorporation (cell proliferation assay). The class given is cell-based, human. The procedure:
Cell culture. The poorly differentiated human pancreatic cancer line AsPC-1 was purchased from the American Type Culture Collection (ATCC, Manassas, Va., USA). Cells were cultured in MEM medium supplemented with penicillin G (100 U/mL), streptomycin (100 U/mL) and 10% FBS at 37° C. in humidified air with 5% CO2. Cells were harvested by incubation in trypsin-EDTA solution for 10–15 minutes. Cells were then centrifuged at 300×g for 5 minutes and cell pellets were suspended in fresh culture medium prior to seeding into culture flasks or plates.
Cell proliferation assay. Cell growth was analyzed by ^3H-methyl thymidine incorporation and cell counting. Following treatment of pancreatic cancer cells with a series of concentrations of frondoside A from 1 μg/mL to 16 μg/mL, cellular DNA synthesis was assayed by adding ^3H-methyl thymidine at 0.5 μLCi/well. After 2 hours incubation, the cells were washed twice with PBS, precipitated with 10% TCA for two hours, and solubilized from each well with 0.5 ml of 0.4 N NaOH. Incorporation of ^3H-methyl thymidine into DNA was measured by adding scintillation liquid and counting in a scintillation counter (LKB BackBeta, Wallac, Turku, Finland). For cell counting, cells were seeded in 12 wells plates and cultured with serum-free medium for 24 hours prior to frondoside A treatment and then switched to serum-free medium with or without 4 μg/mL frondoside A for the respective treatment time points (24, 48 and 72 hours). The cells were removed from the plate by trypsinization to produce a single cell suspension for cell counting. The cells were counted using Z1-Coulter Counter (Luton, UK).
On the technique in general: Uptake of a labelled nucleoside into DNA is a usual measure of proliferation.

The next data set deals with caspase 7. As to the kind of experiment: Western blotting, caspase 7 in AsPC-1 cells. Type of data set: cell-based, human. To be noted: 4 μg/mL, time-dependent (FIG. 3). The procedure: (§1) Western blotting. Cells were seeded into flasks and cultured to 50% to 60% confluence for 24 hours. Cells were then placed in serum-free medium with or without 4 μg/mL frondoside A for periods of 0, 24, 48 and 72 hours respectively. Proteins were extracted from attached and floating cells in lysis buffer containing 4% SDS. Protein concentrations were determined using the bicinchoninic acid assay with BSA as standard. Western blotting was carried out. In brief, equal amounts of protein in the cell lysates were separated on 15% SDS-PAGE and the proteins were transferred onto nitrocellulose membranes. After blocking non-specific sites with dried milk, membranes were incubated with the appropriate dilution of primary antibody. Membranes were then incubated with a horseradish peroxidase conjugated secondary antibody. Proteins were detected using an enhanced chemiluminescence detection system.
(In general: Immunoblotting shows a protein as a band on a membrane.)

Data set [1] deals with HUVEC (human umbilical vein endothelial cells). In words: Angiogenesis, tube formation on Matrigel. The class given is cell-based. Conditions: for %, Inhibition of the total tube length (Mean ± SEM, n = 2): HUVEC, 18 hours. The procedure: Test Substance and Concentration.
Cell Line and Culture Media.
Evaluation of anti-proliferation for test substances. Matrigel matrix was thawed, kept on ice at 4° C. and 50 μL transferred to each well of a 96-microwell tissue culture plate. The plate was incubated at 37° C. for at least one hour to allow the matrix solution to solidify before treatment.
Aliquots of 200 μl of (HUVEC) suspension (about 1.5×10^4 cells/well) were placed in 96-well microtiter plate. Two microliters of compound test solution or vehicle (40% DMSO) was then added per well in duplicate and incubated at 5% CO2 at 37° C. for 18 hours. The final concentration of DMSO was 0.4%. […] Failure to form continuous networks between cell bodies in the presence of test substance was photographed and scored as to the extent of tube disruption at a magnification of 40×. […] The minimum inhibitory concentration (MIC) was calculated to assess the effect of the test substance on angiogenesis.

Another data set concerns Bax. In words: Western blotting, Bax in AsPC-1 cells. The class given is cell-based, human. To be noted: 4 μg/mL (FIG. 4). The protocol: as §1
The test system of data set [2] is AsPC-1 human pancreatic cancer xenografts. As to the kind of experiment: AsPC-1 xenografts in athymic mice. The class given is in vivo. To be noted: 10 μg/kg/day intraperitoneal, 4 weeks. The procedure: Animal Study. Athymic mice (BALB/c nu/nu, 5-week old females) were purchased from Charles River Laboratories (Wilmington, Mass.). Mice were acclimatized to the animal facility for one week prior to receiving xenografts. Xenografts of three million AsPC-1 cells were injected into the flanks of mice. Once visible tumors were evidenced 4–5 days after injection, the animals were divided equally into two groups (6 animals/group) and treated with frondoside A (10 μg/kg/day) or control vehicle (100 μL phosphate-buffered saline, PBS) by intraperitoneal injection. Animal weight and tumor size were recorded every three days. The formula used for tumor volume was (length)H(width)H(length+width/2)H0.526=volume (Naito et al., Int. J. Cancer 58:730 [1994]). After 4-weeks of treatment the animals were euthanized and the tumors were carefully dissected and tumor weights measured.

The next data set concerns cancer cells. As to the kind of experiment: Anti-cancer / apoptotic promoting activity, method not described. To be noted: no test described for Frondoside B.
The next data set concerns Bcl-2. In words: Western blotting, Bcl-2 in AsPC-1 cells. The class given is cell-based, human. Conditions: 4 μg/mL, time-dependent (FIG. 4). The protocol:
as §1

In a further data set the test system is caspase 9. In words: Western blotting, caspase 9 in AsPC-1 cells. Type of data set: cell-based, human. To be noted: 4 μg/mL, time-dependent (FIG. 3). The procedure: as §1

In the case of `COC1C(O)C(CO)OC(OC2C(O)COC(OC3C(C)OC(OC4C(OC5CCC6(C)C7CCC89C(=O)OC(C)(CCCC(C)C)C8C(OC(C)=O)CC9(C)C7=CCC6C5(C)C)OCC(OS(=O)(=O)[O-])C4O)C(OC4OCC(O)C(O)C4O)C3O)C2O)C1O.[Na+]` [Frondoside A, 3-O-methyl-β-D-glucopyranosyl-(1→3)-β-D-xylopyranosyl-(1→4)-[β-D-xylopyranosyl-(1→2)]-β-D-quinovopyranosyl-(1→2)-4-O-sodium sulfate-β-D-xylopyranosyl-3-O-holost-7(8)-en-3β-ol-16β-O-acetate], the “reduction of incorporation of 3H-methyl thymidine into DNA” value in the data set on AsPC-1 cells (4 μg/mL, within 24 hours) is “approximately 50%”. Also, the “inhibition of thymidine incorporation” value in the data set on AsPC-1 cells (AsPC-1 cells, 1 μg/mL to 16 μg/mL, concentration-dependent (FIG. 1)) is reported as “marked inhibition of thymidine incorporation”. The “concentrations causing cytotoxicity (cell necrosis)” value in the data set on AsPC-1 cells (immediate necrosis of cells) was “higher than 16 μg/mL”. Further, in the data set with caspase 7, the “activation of caspase 7” value was “reduction in the amounts of the respective procaspase forms”. In addition, the “inhibition of tube formation relative to the vehicle-treated controls” value in data set [1] (100, 10 and 1 μM (≧30%)) was “significant inhibition”. Moreover, the “%, Inhibition of the total tube length (Mean ± SEM, n = 2)” value in data set [1] (0.01 μM) is 1 ± 1%; in data set [1] (0.1 μM), 3 ± 4%; in data set [1] (1 μM) it was 88 ± 6^a,b %; in data set [1] (10 μM), 100 ± 0^a %; in data set [1] (100 μM), 100 ± 0^a %. Also, the “MIC (Minimum Inhibitory Concentration)” value in data set [1] (tube formation, significant inhibition ≧30%) was found to be 1 µM. In the data set on Bax, the “concentrations of the pro-apoptotic protein Bax” value is “increased”. The “body weights of control and treated animals” value in data set [2] (athymic mice) is “no significant difference”. The “toxicity through the treatment period” value in data set [2] (athymic mice) was “No toxicity was seen”. Further, the “growth of subcutaneously transplanted AsPC-1 cells (tumor volume and tumor weight)” value in data set [2] (athymic mice (FIG. 6)) is on record as “markedly inhibited the growth”. The “apoptotic promoting activity in cancer cells” value in the data set on cancer cells is reported as “apoptotic promoting activity”. Also, in the data set with Bcl-2, the “expression of Bcl-2” value is “decreased expression”. Also, in the data set on caspase 9, the “activation of caspase 9” value is “reduction in the amounts of the respective procaspase forms”.
